{"source": "patent US20260115312A1", "about": "“Conjugates for neuroretinal drug delivery” (Mireca Medicines GmbH, priority 2022, published 2026)", "key": {"[1]": {"target": "MCT1", "conditions": "cited from earlier work"}, "[2]": {"test": "In vitro drug release from liposomes", "format": "physicochemical", "conditions": "liposomes according to the invention, in vitro set-up", "experimental": "Complete release of CN04 from liposomes according to the invention was shown in an in vitro set-up within 48 h. The release rate for CN03 and CN04 can be lowered by precipitation within the liposome cavity with a specific salt using a remote loading technique similar to what has been done for liposomal doxorubicin formulations. CN03 has previously been remote loaded in similar liposomes using calcium acetate salts (Vighi, E., et al., PNAS, 2018, 115(13))."}, "[3]": {"test_system": "photoreceptors in rd1 retinal explant cultures", "test": "TUNEL assay of dying photoreceptors in rd1 organotypic retinal explant cultures", "format": "cell-based, mouse", "conditions": "free drug solution, 160 μM in 20 μL, final 3.14 μM, P7-P11", "experimental": "FIG. 3A—Treatment of organotypic retinal explant cultures derived from the rd1 mouse model. Retinas were cultured at P5 and treated with either liposome-encapsulated or non-encapsulated (free) neuroprotective drugs (CN03 or CN04) from P7-P11. Assuming an equal distribution across the entire culturing medium, the final drug concentration was 3.14 μM for all treatments. The amount of dying photoreceptors in tissue sections from cultures under various treatment conditions was assessed using the TUNEL assay. DAPI was used to distinguish the outer nuclear layer (ONL). INL=inner nuclear layer. Scale bar 50 μm.\nFIG. 3B—As for 3A, shown are percentages of dying (TUNEL+) cells in the ONL. Under non-treated (NT) conditions, the number of TUNEL+ cells are high in the rd1 model. Administration of free CN03 or CN04 had no significant effect on cell death. […]\n(§1) Retinas derived from the rd1 or rd10 mouse models were cultured following the protocol described above and treated with the drugs CN03 or CN04. […] 11 z-stacks 1 μm apart were recorded, and from the projected images, the number of TUNEL-positive cells in the outer nuclear layer was manually counted. For the rd10 derived cultures, the average number of photoreceptor rows residing in the outer nuclear layer was counted from microscopy images, using the same imaging method. […]"}, "[4]": {"target": "MCT2", "conditions": "cited from earlier work"}, "[5]": {"test_system": "photoreceptors in rd10 retinal explant cultures", "test": "Remaining photoreceptor rows in rd10 organotypic retinal explant cultures", "format": "cell-based, mouse", "conditions": "treated P11 until P17 or P24, DSPC-containing liposomes, same drug concentration", "experimental": "FIG. 4A—Treatment of organotypic retinal explant cultures derived from the rd10 mice model. Retinas were cultured at P9 and treated from P11 until either P17 or P24 with free neuroprotective CN03 or with CN03 encapsulated in pyruvate-liposomes (Lp-Pyr/CN03). Representative images of retinal explant culture sections at P17 and P24. DAPI used as nuclear stain. ONL=outer nuclear layer, INL=inner nuclear layer.\nFIG. 4B—As for 4A, shown is the number of remaining photoreceptor rows in the tissue sections. NT and CN03 substantially overlap. Results represent mean±SD. At P17: n=4-6. At P24: n=4-5. **=p≤0.01 between the Lp-Pyr/CN03 and CN03 or NT group. Statistical analysis: Two-way ANOVA with Tukey's multiple comparison test. Scale bar 50 μm.\nas §1, with “CN04. A treatment was done by applying a 20 μL solution containing 160 μM drug (either loaded in liposomes or in a free solution) to the top of the cultures.” for “CN04.”"}}, "note": "pKi: −log10 of the molar value.", "data": [{"compound": "Cc1[nH]nc(C(F)(F)F)c1Cc1sc2c(c1C(=O)N1C[C@](C)(O)CO1)c(=O)n(C)c(=O)n2C(C)C", "note": "[AZD3965]", "values": [{"measurement": "pKi", "setting": "[1]", "result": 8.80}]}, {"compound": "O=c1c2nc(Sc3ccc(Cl)cc3)n([C@@H]3O[C@@H]4CO[P@@](=O)(S)O[C@@H]4C3O)c2nc2[nH]c(-c3ccccc3)cn12", "note": "(stereo partly drawn) [CN04, Rp-8-pCPT-PET-cGMPS]", "values": [{"measurement": "Complete release from liposomes (time)", "setting": "[2]", "result": "≤ 48", "unit": "h"}, {"measurement": "Dying photoreceptors (TUNEL+ cells in ONL)", "setting": "[3]", "result": "no significant reduction in dying photoreceptors"}]}, {"compound": "Cc1n[nH]c(C)c1Cc1sc2c(c1C(=O)N1C[C@H](O)CO1)c(=O)n(C)c(=O)n2CC(C)C", "note": "[AR-C155858]", "values": [{"measurement": "pKi", "setting": "[4]", "result": "> 8.00"}]}, {"compound": "O=c1c2nc(Br)n([C@@H]3O[C@@H]4CO[P@@](=O)(S)O[C@@H]4C3O)c2nc2[nH]c(-c3ccccc3)cn12", "note": "(stereo partly drawn) [CN03, Rp-8-Br-PET-cGMPS]", "values": [{"measurement": "Dying photoreceptors (TUNEL+ cells in ONL)", "setting": "[3]", "result": "no significant reduction in dying photoreceptors"}, {"measurement": "Number of remaining photoreceptor rows", "setting": "[5]", "result": "did not achieve a rescue effect"}]}]}
